Key:
[1] = tested on: murine cancer models; settings: cited from earlier work
[2] = tested on: Renca (renal carcinoma) cells; assay: Renal cell carcinoma (Renca) tumor model in mice: survival and tumor growth; settings: co-administration of immune stimulating complex (ISCOMATRIX adjuvant) with ODN 7909, compared with either agent alone
Description: • Mice: All experiments were carried out using female BALB/c mice aged 6-8 weeks with 10 mice per experimental or control group. • Oligonucleotides: All oligonucleotides were obtained from Coley Pharmaceutical GmbH, Langenfeld, Germany. • Immune stimulating complexes: ISCOMATRIX® adjuvant, herein referred to as IMX, was the immune stimulating complex used in these Examples.
Female BALB/c mice (n=10 per group) were injected with 2×10^5 Renca (renal carcinoma) cells by SC injection into the left flank. Animals were treated with CpG 7909 alone, ISCOMATRIX® (IMX) alone or a combination of CpG 7909 and INIX administered by SC injection into the tumor perimeter weekly from day 10-28 post tumor cell injection. Control animals were injected with 100 μl of phosphate buffered saline (PBS) weekly from day 10-38 post tumor cell injection. Animals were monitored for survival (FIG. 1, panel A) and tumor growth (FIG. 1, panel B). Tumor size (length and width) was measured using a digital vernier calliper. Tumor volume was calculated by using the formula: Tumor volume=(0.4) (ab2), where a=large diameter and b=smaller diameter. In the tumor volume graph (FIG. 1, panel B), changes in average tumor volume are indicated until 50% death in each animal group.

Q: With “TCGTCGTTTTGTCGTTTTGTCGTT [CpG 7909]” as the sequence, how does the anti-tumor effects ([1]; several murine cancer models, demonstrated previously) read?
A: The anti-tumor effects was “demonstrated previously”.

Q: What about the “effect on anti-tumor effects of chemotherapeutic drugs” value ([1]; shown previously) of the same sequence?
A: The value was “augment the anti-tumor effects of some chemotherapeutic drugs”.

Q: And the survival [2]?
A: The survival was “increased survival”.

Q: What about the tumor growth [2] of the same sequence?
A: Its tumor growth is “controlled tumor growth better than did either agent alone”.
